According to patent US9763954B2, “Therapeutical uses of eslicarbazepine” (BIAL-PORTELA & CA, S.A., priority 2007, dated 2017):
Entries after “also recorded” stand apart in the source; their conditions may differ.

Assays:
P-gp or MRP = settings: cited from earlier work; for category of P-gp or MRP substrates: AEDs listed in the discussion
[1] = test system: Multiple Resistant Proteins (MRP); experiment: Brain/plasma ratio in mice pre-treated with the MRP inhibitor probenecid; settings: for substrate for MRP: concluded from probenecid pre-treatment
Method: (§2) CD-1 mice weighing 30-35 g were maintained under controlled environmental conditions (23-24° C.) for at least 5 days before the experiment. […] In the second series of experiments, mice pre-treated with vehicle, verapamil (20 mg/kg) or probenecid (100 mg/kg) were given 30 min later intraperitoneally S-licarbazepine or R-licarbazepine (100 mg/kg). […] After collection of blood, plasma was obtained by centrifugation. Brain samples were homogenised in phosphate buffer (pH 5; 4 mL/g) followed by centrifugation and collection of the supernatant. Plasma and the tissue supernatant were stored frozen until analysis. The assay of S-licarbazepine and R-licarbazepine was performed using a HPLC-UV or LC-MS method following solid phase extraction.

[2] = Plasma pharmacokinetics after oral administration to CD-1 mice; type: in vivo
Source text: (§1) The following pharmacokinetic parameters for S-licarbazepine and R-licarbazepine were derived by non-compartmental analysis from the concentration versus time profiles: maximum observed plasma drug concentration (Cmax), time at which the Cmax occurred (tmax), area under the plasma concentration versus time curve (AUC) from time zero to the last sampling time at which concentrations were at or above the limit of quantification (AUC0-t) and AUC from time zero to infinity (AUC0-∞), elimination half-life (t1/2) and mean residence time (MRT). The pharmacokinetic parameters were determined using WinNonlin (version 4.0). Summary statistics of all data for each treatment and scheduled sampling times were reported, as appropriate, using the geometric mean, arithmetic mean, standard deviation (SD), coefficient of variation (CV), median, minimum and maximum. The statistical package SAS Version 8.2 or higher (SAS Institute, Cary, USA) was used in all computations when considered appropriate.

NMRI mice [3] = experiment: Corneal kindling procedure (acquisition of kindling); type: in vivo
Method: Vehicle (30% DMSO in distilled water) or the compounds dissolved in 30% DMSO were administered intraperitoneally twice daily. NMRI mice were stimulated twice daily (interstimulation interval 6-7 h) on twelve consecutive days. The electrostimulations with current intensities of 3 mA and duration of 3 s (pulse frequency 50 Hz) were applied via corneally placed saline-soaked copper electrodes. A stimulator was used to deliver a constant current regardless of the impedance of the test object. Seizure severity was ranked according to a modified system of Racine (Racine, 1972): 1, mild facial clonus and eye blinking; 2, severe facial clonus, head nodding, chewing; 3, unilateral or alternating forelimb clonus; 4, bilateral forelimb clonus with rearing […]; 5, bilateral forelimb clonus with rearing and falling; 6, tonic fore- and/or hindlimb extension.

P-glycoprotein (P-gp) = P-glycoprotein (P-gp) (Mus musculus, UniProt P21447); experiment: Brain/plasma ratio in mice pre-treated with the P-gp inhibitor verapamil; settings: for substrate for P-gp: concluded from verapamil pre-treatment; for effect of verapamil on brain/plasma ratio: verapamil 20 mg/kg 30 min before 100 mg/kg intraperitoneally, FIG. 2
Method: as §2

[4] = Brain pharmacokinetics (brain access) after oral administration to CD-1 mice; type: in vivo; settings: for presence of the opposite enantiomer in brain: analyte found after administration of the other enantiomer
Source text: as §1

[5] = test system: patients with drug-resistant epilepsy; settings: six months after initiation of therapy; 120 patients who had tried at least 3-4 other AEDs; cited from earlier work
[6] = test system: partial epilepsy refractory patients; settings: cited from earlier work
NMRI mice [7] = experiment: Formalin paw test; type: in vivo; settings: 100 mg/kg p.o., 120 minutes before the test; FIG. 6
Method: The method, which detects analgesic/anti-inflammatory activity, follows that described by Wheeler-Aceto et al (Wheeler-Aceto et al., 1991). NMRI mice were given an intraplantar injection of 5% formalin (25 μl) into the posterior left paw. […] The time spent licking was counted for 15 minutes, beginning 15 minutes after injection of formalin. 10 mice were studied per group. The test was performed blind. S-Licarbazepine and R-licarbazepine were tested at the dose of 100 mg/kg p.o., administered 120 minutes before the test (i.e. […]), and compared with a vehicle control group in each experiment.

[8] = 100 mg/kg twice daily, twelve days
[9] = eslicarbazepine acetate 100 mg/kg, i.p., FIG. 3
[10] = plasma, after 350 mg/kg R-licarbazepine oral, CD-1 mice
[11] = brain, after 350 mg/kg R-licarbazepine oral, CD-1 mice

Chain of P-glycoprotein (P-gp) (P21447 whole entry): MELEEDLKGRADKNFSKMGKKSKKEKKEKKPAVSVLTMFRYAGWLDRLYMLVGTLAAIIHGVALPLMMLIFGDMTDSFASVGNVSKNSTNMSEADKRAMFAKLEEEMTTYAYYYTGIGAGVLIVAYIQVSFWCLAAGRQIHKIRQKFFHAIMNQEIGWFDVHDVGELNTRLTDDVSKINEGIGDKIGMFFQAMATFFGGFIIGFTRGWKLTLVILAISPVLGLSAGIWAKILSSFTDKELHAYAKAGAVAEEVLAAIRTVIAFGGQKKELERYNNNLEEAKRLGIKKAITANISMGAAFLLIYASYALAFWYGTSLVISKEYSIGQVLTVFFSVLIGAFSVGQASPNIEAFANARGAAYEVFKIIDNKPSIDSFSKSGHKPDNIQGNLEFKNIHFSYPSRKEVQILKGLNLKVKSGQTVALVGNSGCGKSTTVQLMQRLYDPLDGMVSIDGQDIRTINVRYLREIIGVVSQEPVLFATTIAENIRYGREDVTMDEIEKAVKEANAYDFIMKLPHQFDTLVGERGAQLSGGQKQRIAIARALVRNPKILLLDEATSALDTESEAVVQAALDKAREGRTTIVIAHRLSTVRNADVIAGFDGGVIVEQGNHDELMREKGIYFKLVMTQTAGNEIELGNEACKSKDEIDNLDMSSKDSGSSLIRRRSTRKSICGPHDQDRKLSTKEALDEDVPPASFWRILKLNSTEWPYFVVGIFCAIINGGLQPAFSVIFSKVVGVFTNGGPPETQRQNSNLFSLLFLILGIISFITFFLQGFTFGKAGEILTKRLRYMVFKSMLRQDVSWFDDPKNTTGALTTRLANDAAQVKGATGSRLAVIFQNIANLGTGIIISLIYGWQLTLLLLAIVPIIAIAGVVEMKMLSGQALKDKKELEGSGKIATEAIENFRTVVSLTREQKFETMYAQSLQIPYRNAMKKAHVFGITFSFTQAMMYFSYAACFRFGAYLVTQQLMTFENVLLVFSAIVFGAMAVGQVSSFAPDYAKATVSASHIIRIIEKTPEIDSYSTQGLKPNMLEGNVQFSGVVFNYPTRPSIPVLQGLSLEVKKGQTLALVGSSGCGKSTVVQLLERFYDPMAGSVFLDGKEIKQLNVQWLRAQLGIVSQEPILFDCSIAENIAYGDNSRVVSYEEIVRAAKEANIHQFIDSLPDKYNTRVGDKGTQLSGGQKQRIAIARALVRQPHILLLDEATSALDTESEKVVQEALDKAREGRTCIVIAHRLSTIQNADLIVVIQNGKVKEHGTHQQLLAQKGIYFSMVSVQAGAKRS

Question: Which “category of P-gp or MRP substrates” value (P-gp or MRP) does the source give for `NC(=O)OCC(COC(N)=O)c1ccccc1` [felbamate] here?
Answer: P-gp or MRP substrates

Question: For `NC(=O)N1c2ccccc2C[C@H](O)c2ccccc21` [S-licarbazepine, (S)-(+)-10,11-dihydro-10-hydroxy-5H dibenz/b,f/azepine-5-carboxamide], which “substrate for MRP” value [1] is on record?
Answer: not a substrate

Question: What about the “effect of probenecid on brain/plasma ratio” value ([1]; probenecid 100 mg/kg 30 min before 100 mg/kg intraperitoneally, FIG. 2) of the same compound?
Answer: failed to affect

Question: What about the MRT ([2]; CD-1, mouse, oral, 350 mg/kg, plasma, approximate range stated for both enantiomers, read-out: mean residence time (MRT)) of the same compound?
Answer: 10 to 12 h

Question: And the half-life ([2]; CD-1, mouse, oral, 350 mg/kg, plasma, approximate value stated for both enantiomers, read-out: elimination half-life (t1/2) (converted))?
Answer: ~8 h

Question: What about the AUC(0-t) ([2]; CD-1, mouse, plasma, po, 350 mg/kg, plasma, after 350 mg/kg R-licarbazepine oral, CD-1 mice, read-out: AUC0-t) of the same compound?
Answer: 4.58 µg·h/mL

Question: And the Cmax ([2]; CD-1, mouse, plasma, po, 350 mg/kg, plasma, after 350 mg/kg R-licarbazepine oral, CD-1 mice, read-out: Cmax)?
Answer: 1020 ng/mL

Question: And the AUC(0-t) ([2]; CD-1, mouse, plasma, po, 350 mg/kg, plasma, after 350 mg/kg S-licarbazepine oral, CD-1 mice, read-out: AUC0-t)?
Answer: 187 µg·h/mL

Question: What about the Cmax ([2]; CD-1, mouse, plasma, po, 350 mg/kg, plasma, after 350 mg/kg S-licarbazepine oral, CD-1 mice, read-out: Cmax) of the same compound?
Answer: 41300 ng/mL

Question: What about the “amount detectable in plasma” value ([2]; S-licarbazepine in plasma after administration of R-licarbazepine) of the same compound?
Answer: small amounts

Question: And the AUC(0-inf) ([2]; mouse, plasma, after 350 mg/kg S-licarbazepine oral, CD-1 mice)?
Answer: 258 µg·h/mL

Question: And the MRT ([2]; mouse, plasma, after 350 mg/kg S-licarbazepine oral, CD-1 mice, read-out: MRT)?
Answer: 11.7 h

Question: What about the tmax ([2]; mouse, plasma, after 350 mg/kg S-licarbazepine oral, CD-1 mice, read-out: tmax) of the same compound?
Answer: 0.25 h

Question: What about the half-life ([2]; mouse, plasma, after 350 mg/kg S-licarbazepine oral, CD-1 mice, read-out: t½ (converted)) of the same compound?
Answer: 7.93 h

Question: What about the “absorption after oral administration” value ([2]; oral, CD-1 mice) of the same compound?
Answer: rapidly absorbed

Question: What about the “adverse effects during the course of the experiment” value (NMRI mice [3]; [8]) of the same compound?
Answer: no adverse effects were obvious

Question: And the “substrate for P-gp” value (P-glycoprotein (P-gp))?
Answer: not a substrate

Question: What about the “effect of verapamil on brain/plasma ratio” value (P-glycoprotein (P-gp)) of the same compound?
Answer: failed to affect

Question: And the “brain/plasma ratio (considering either Cmax or AUC)” value ([4]; FIG. 1, compared with R-licarbazepine)?
Answer: considerably greater

Question: And the “presence of the opposite enantiomer in brain” value [4]?
Answer: almost negligible

Question: And the “AUCbrain(S-Licarbazepine)/AUCbrain(R-Licarbazepine)” value ([4]; brain exposure ratio, each enantiomer given orally 350 mg/kg)?
Answer: 1.9

Question: And the AUC(0-inf) ([4]; mouse, brain, after 350 mg/kg S-licarbazepine oral, CD-1 mice)?
Answer: 111 µg·h/mL

Question: And the AUC(0-t) ([4]; mouse, brain, after 350 mg/kg S-licarbazepine oral, CD-1 mice, read-out: AUC0-t)?
Answer: 109 µg·h/mL

Question: And the Cmax ([4]; mouse, brain, after 350 mg/kg S-licarbazepine oral, CD-1 mice, read-out: Cmax)?
Answer: 12300 ng/mL

Question: What about the MRT ([4]; mouse, brain, after 350 mg/kg S-licarbazepine oral, CD-1 mice, read-out: MRT) of the same compound?
Answer: 7.84 h

Question: What about the tmax ([4]; mouse, brain, after 350 mg/kg S-licarbazepine oral, CD-1 mice, read-out: tmax) of the same compound?
Answer: 1 h

Question: What about the half-life ([4]; mouse, brain, after 350 mg/kg S-licarbazepine oral, CD-1 mice, read-out: t½ (converted)) of the same compound?
Answer: 4.87 h

Question: For `CC[C@@H](C(N)=O)N1CCCC1=O` [Levetiracetam], which “substrate for either P-gp or MRP1/2” value (P-gp or MRP; verapamil and probenecid did not increase brain penetration) is on record?
Answer: not to be a substrate

Question: And the patients seizure-free [5]?
Answer: 32%

Question: For `NC(=O)N1c2ccccc2CC(=O)c2ccccc21` [oxcarbazepine], which “category of P-gp or MRP substrates” value (P-gp or MRP) is on record?
Answer: P-gp or MRP substrates

Question: With `CC(=O)O[C@H]1Cc2ccccc2N(C(N)=O)c2ccccc21` [eslicarbazepine acetate, (S)-(−)-10-acetoxy-10,11-dihydro-5H-dibenz/b,f/azepine-5-carboxamide] as the compound, how does the “effect of probenecid on S-licarbazepine brain/plasma ratio after eslicarbazepine acetate” value [1, 9] read?
Answer: failed to affect

Question: And the “patients that became seizure free” value ([6]; 1 month after initiation of therapy)?
Answer: approximately 25%

Question: And the “efficacy in partial epilepsy refractory patients” value ([6]; administered once-daily)?
Answer: very efficacious

Question: What about the “effect of verapamil on S-licarbazepine brain/plasma ratio after eslicarbazepine acetate” value (P-glycoprotein (P-gp); [9]) of the same compound?
Answer: failed to affect

Question: Which “category of P-gp or MRP substrates” value (P-gp or MRP) does the source give for `NC(=O)N1c2ccccc2C=Cc2ccccc21` [carbamazepine] here?
Answer: P-gp or MRP substrates

Question: Which “substrate for MRP” value [1] does the source give for `NC(=O)N1c2ccccc2C[C@@H](O)c2ccccc21` [R-licarbazepine] here?
Answer: not for MRP

Question: What about the “licking time versus vehicle controls” value (NMRI mice [7]) of the same compound?
Answer: did not attain statistical significance

Question: What about the “absorption after oral administration” value ([2]; oral, CD-1 mice) of the same compound?
Answer: rapidly absorbed

Question: And the “AUC0-∞” value [2, 10]?
Answer: 231.716 µg·h/mL

Question: What about the AUC(0-t) [2, 10] of the same compound?
Answer: 203.705 µg·h/mL

Question: And the Cmax [2, 10]?
Answer: 69946 ng/mL

Question: And the MRT [2, 10]?
Answer: 10.12 h

Question: What about the tmax [2, 10] of the same compound?
Answer: 0.25 h

Question: What about the t½ [2, 10] of the same compound?
Answer: 8.11 h

Question: What about the “elimination half-life (t1/2)” value ([2]; plasma, approximate value stated for both enantiomers) of the same compound?
Answer: ≈ 8 h

Question: What about the “effect on acquisition of kindling” value (NMRI mice [3]; 100 mg/kg twice daily intraperitoneally, twelve days) of the same compound?
Answer: no inhibitory effect

Question: And the “adverse effects during the course of the experiment” value (NMRI mice [3]; [8])?
Answer: no adverse effects were obvious

Question: And the “mean seizure severity versus vehicle control group” value (NMRI mice [3]; 100 mg/kg twice daily, S-lic: all sessions of first three days, R-lic: all sessions except afternoon of day 8)?
Answer: no significant differences

Question: And the “number of stimulations necessary to induce a seizure with a given severity score” value (NMRI mice [3]; 100 mg/kg twice daily, score 3 and 4 (S-lic), score 3, 4, 5 and 6 (R-lic), versus control)?
Answer: did not differ

Question: And the “animals that had reached the kindling criterion (at least one generalized seizure, score 4-6)” value (NMRI mice [3]; at termination of treatment, day 12)?
Answer: all of the treated animals

Question: What about the “substrate for P-gp” value (P-glycoprotein (P-gp)) of the same compound?
Answer: is a substrate

Question: What about the “effect of verapamil on brain/plasma ratio” value (P-glycoprotein (P-gp)) of the same compound?
Answer: markedly increased; also recorded: equals that of S-licarbazepine in vehicle-treated animals

Question: And the “presence of the opposite enantiomer in brain” value [4]?
Answer: almost negligible

Question: What about the “AUC0-∞” value [4, 11] of the same compound?
Answer: 60.037 µg·h/mL

Question: And the AUC(0-t) [4, 11]?
Answer: 51.516 µg·h/mL

Question: And the Cmax [4, 11]?
Answer: 8533 ng/mL

Question: And the MRT [4, 11]?
Answer: 11.34 h

Question: And the tmax [4, 11]?
Answer: 0.75 h

Question: What about the t½ [4, 11] of the same compound?
Answer: 7.91 h

Question: With `CCC1(c2ccccc2)C(=O)NC(=O)NC1=O` [phenobarbital] as the compound, how does the “category of P-gp or MRP substrates” value (P-gp or MRP) read?
Answer: P-gp or MRP substrates

Question: Which “licking time versus vehicle controls” value (NMRI mice [7]) does the source give for `NCC1(CC(=O)O)CCCCC1` [Gabapentin] here?
Answer: significantly (p<0.05) decreased

Question: For `O=C1NC(=O)C(c2ccccc2)(c2ccccc2)N1` [phenytoin], which “category of P-gp or MRP substrates” value (P-gp or MRP) is on record?
Answer: P-gp or MRP substrates
